Measured values as given in patent publication US11358992B2, “Cell-penetrating cereblon recombinant fusion protein and use thereof” (UPPTHERA, priority 2020, dated 2022).

Tested on: MM1.S lenalidomide-resistant cells
Experiment: Cell viability (EZ-Cytox) of lenalidomide-resistant multiple myeloma cells
Assay type: cell-based
Conditions: 42 hours culture + 3 hours EZ-Cytox, absorbance 450 nm
Description: The MM1.S cell line (American Type Culture Collection, ATCC from USA) was incubated in RPMI1640 medium containing 10% FBS and 1% penicillin/streptomycin at 37° C. under 5% CO2. The Lenalidomide-resistant MM1.S cell line was established by gradually adding […] lenalidomide (Sigma-Aldrich, Cat No. D2438) from 5 μM to 200 μM to the cell line culture.
In order to evaluate cytotoxic effects of the 30Kcα-CRBN recombinant fusion protein, 1×104 MM1.S lenalidomide-resistant cells were seeded in each well of a 96 well plate. 200 μM of lenalidomide and/or 3 μM of 30Kcα-CRBN recombinant fusion protein were added to each well according to the experimental group. The total medium volume of each well was adjusted to 100 μL. Then, each medium was cultured for 42 hours, and 10 μl of EZ-Cytox (Cat. No. EZ-3000 from Dogen) was added to each well, followed by incubation for 3 hours. Thereafter, absorbance was measured at 450 nm using a microplate reader (Clarostar™ from BMGlabtech), and a cell viability (%) was calculated by using the measured absorbance and shown in FIG. 2.

## Nc1cccc2c1CN(C1CCC(=O)NC1=O)C2=O (centres unmarked) [lenalidomide]
Lenalidomide 200 μM alone, without 30Kcα-CRBN fusion protein, FIG. 2A
  cell viability: could not be reduced

B1: 30Kcα-CRBN recombinant fusion protein: Fusion recombinant protein of 30Kc19 α-helix domain (30Kc19α, SEQ ID NO: 1) linked N-terminally to human cereblon (SEQ ID NO: 2) (protein)
chain: ADSDVPNDILEEQLYNSVVVADYDSAVEKSKHLYEEKKSEVITNVVNKLIRNNKMNCMEYAYQLWLQGSKDIVRDCFPVEFRLIFAENMAGEGDQQDAAHNMGNHLPLLPAESEEEDEMEVEDQDSKEAKKPNIINFDTSLPTSHTYLGADMEEFHGRTLHDDDSCQVIPVLPQVMMILIPGQTLPLQLFHPQEVSMVRNLIQKDRTFAVLAYSNVQEREAQFGTTAEIYAYREEQDFGIEIVKVKAIGRQRFKVLELRTQSDGIQQAKVQILPECVLPSTMSAVQLESLNKCQIFPSKPVSREDQCSYKWWQKYQKRKFHCANLTSWPRWLYSLYDAETLMDRIKKQLREWDENLKDDSLPSNPIDFSYRVAACLPIDDVLRIQLLKIGSAIQRLRCELDIMNKCTSLCCKQCQETEITTKNEIFSLSLCGPMAAYVNPHGYVHETLTVYKACNLNLIGRPSTEHSWFPGYAWTVAQCKICASHIGWKFTATKKDMSPQKFWGLTRSALLPTIPDTEDEISPDKVILCL
modifications: 30Kc alpha-CRBN
3 μM 30Kcα-CRBN fusion protein in combination with 200 μM lenalidomide, FIG. 2B
  reduction of cell viability compared with the control: ~50%
